{"source": "patent US20040009939A1", "about": "“Methods of enhancing immune induction involving MDA-7” (Board of Regent, The University of Texas System, priority 2002, published 2004)", "assay_type_in_all_cases": "cell-based, human", "key": {"[1]": {"system": "A549 (wt p53), H1299 (null p53), and H322J (mutant p53) lung cancer cells", "assay": "Apoptosis by propidium iodide staining and FACS in lung cancer cells", "details": "combination with 2-AP", "experimental": "(§1) Apoptotic cells by propidium iodide staining and FACS analysis were measured. Cells were harvested, pelleted by centrifugation and resuspended in phosphate-buffered saline containing 50 μg/ml propidium iodide, 0.1% Triton X-100, and 0.1% sodium citrate. Samples were stored at 4° C. for 16 hours and vortexed prior to FACS analysis (Becton-Dickenson FACScan, Mountain View, Calif.; FL-3 channel). Cellular viability was assessed with the XTT assay by growing cells in 96-well plates at 100 μL volume/well. After treatment with Ad-mda7 or control vectors, cells were incubated with the tetrazolium salt XTT according to the Roche protocol (Roche Diagnostics, Mannheim, Germany). Viability was assessed spectrophotometrically on an enzyme-linked immunosorbent assay (ELISA) plate reader.\n(§2) Apoptotic cells were measured by propidium iodide staining and FACS analysis. Cells were harvested, pelleted by centrifugation and resuspended in phosphate-buffered saline (PBS) containing 50 μg/ml propidium iodide, 0.1% Triton X-100, and 0.1% sodium citrate. Samples were stored at 4° C. for 16 hours and vortexed prior to FACS analysis (Becton-Dickenson FACScan, Mountain View, Calif.; FL-3 channel). Cellular viability was assessed with the XTT assay by growing cells in 96-well plates in 100 μl volume/well. […] Viability was assessed spectrophotometrically on an enzyme-linked immunosorbent assay (ELISA) plate reader."}, "[2]": {"system": "A549 and H1299 lung cancer cell lines", "assay": "XTT cellular viability assay", "details": "2-AP (10 mM) alone", "experimental": "as §1, §2"}, "[3]": {"system": "PKR", "assay": "Immunoblot and confocal analysis of PKR, PKR substrates and caspases", "details": "A549; immunoprecipitation; 10 mM 2-AP", "experimental": "Forty-eight hours after transfection, cell extracts were prepared for immunoblot assays as previously described (Pataer et al, 2000). The following antibodies were used: Bc1-2, Bak, Bax, PKR (K-17), eIF-2α, β-actin, p38 (A-12), phosphospecific p38 (D-8), stat1 (C-136), phosphospecific stat1 (A-2), stat3 (F-2), phosphospecific stat3 (B-7), anti-Tyk2 (C-20) and phosphospecific anti-Tyk (PY-99) (Santa Cruz Biotechnology, Santa Cruz, Calif.); Caspase 3, caspase-9, caspase-8 and Bid (PharMingen , San Diego, Calif.) and the phosphospecific PKR [pT451] and eIF-2a [pS51] (BioSource International, Camarillo, Calif.). The polyclonal and monoclonal antibodies to MDA-7 were obtained from Introgen Therapeutics, Inc. (Houston, Tex.).\n4×10^5 cells/well were grown on chamber slides overnight and infected with Ad-mda7, Ad-Luc or PBS. 48 hrs later cells were washed with PBS and fixed overnight in 4% paraformaldehyde. Cells were then permeabilized for 20 min at 4° C. with 0.2% triton-X10O and blocked with 5% normal horse serum and 1% normal goat serum. Rabbit polyclonal anti-MDA7 and mouse monoclonal anti-PKR(B-10) were incubated overnight at 4° C. and developed with Rhodamine or FITC goat anti-rabbit IgG for 30-45 min at 37° C. Cells were then visualized under confocal microscopy."}, "[4]": {"system": "eIF-2α protein synthesis inhibition", "assay": "Measurement of cellular protein synthesis", "details": "with 2-AP", "experimental": "Cells were treated with Ad-mda7 or Ad-Luc for 48 hrs. Where indicated, cells were treated with 1 mM 2-AP for 48 hrs. Measurement of protein synthesis was performed as previously described (14). After treatment, approximately 1×10^6 cell equivalents were incubated with L-[U-^14C] amino acid mixture (Amersham, Piscataway, N.J.) at 2 μCi/ml for 10 min at 37° C. The reaction was terminated by the addition of 20% (wt/vol) trichloroacetic acid and the radioactivity in the acid-precipitable fraction was measured in a scintillation counter."}, "[5]": {"system": "NF-κB", "assay": "NF-κB activation (electromobility shift assay)", "experimental": "Studies were conducted to determine whether transgenic MDA-7 expression results in NF-κB activation, and to evaluate the role of NF-κB in protecting tumor cells from MDA-7 induced apoptosis."}, "[6]": {"system": "H1299 cells", "assay": "MDA-7 secretion and trypan blue cytotoxicity with glycosylation and secretion inhibitors", "details": "for concentration that completely blocks secretion of MDA-7 protein: Ad-mda7 transduced H1299", "experimental": "Since glycosylated proteins generally acquire sugars during sorting through the ER and Golgi apparatus, the effect of glycosylation and secretion inhibitors on MDA-7 intracellular processing and subsequent secretion was evaluated. Tunicamycin inhibits the addition of sugars to proteins within the ER, while brefeldin A inhibits vesicle transport of proteins from the ER to the Golgi. Both disrupt the secretion of proteins. The cytotoxicity caused by Ad-mda7 in the presence of these glycosylation and secretion inhibitors was evaluated. Tunicamycin and brefeldin A levels were titrated until inhibition of secretion of MDA-7 protein could be detected. As shown in FIGS. 26A and 26B, treatment of H1299 cells with 2 μg/ml tunicamycin completely blocks secretion of MDA-7 protein, whereas less than 1 μg/ml of brefeldin A is required for this effect. Note that blocking secretion using either drug results in substantial intracellular accumulation of MDA-7 protein. […] The enhanced killing may be due to the tunicamycin sensitizing cells to apoptotic death. […] Therefore, secreted MDA-7 protein is unable to induce killing in cancer cells and is not required for Ad-mda7 mediated apoptosis and eventual killing of cancer cells (FIG. 32B)."}, "[7]": {"system": "H1299 and A549 cells", "assay": "Mitochondrial membrane potential (TMRE) and apoptosis", "details": "Staurosporine 1 μM", "experimental": "Apoptotic cells were measured by propidium iodide staining and FACS analysis. Cells were harvested, pelleted by centrifugation and resuspended in phosphate-buffered saline (PBS) containing 50 μg/ml propidium iodide, 0.1% Triton X-100, and 0.1% sodium citrate. Samples were stored at 4° C. for 16 hours and vortexed prior to FACS analysis (Becton-Dickenson FACScan, Mountain View, Calif.; FL-3 channel). Cellular viability was assessed with the XTT assay by growing cells in 96-well plates in 100 μl volume/well. On day one, cells were transduced with Ad-mda-7, Ad-p53 or control vectors. On day two, the cells were incubated with the tetrazolium salt XTT for 4 to 24 hours according to the Roche protocol (Roche Diagnostics, Mannheim, Germany). Viability was assessed spectrophotometrically on an enzyme-linked immunosorbent assay (ELISA) plate reader.\nThe potential-sensitive fluorochrome tetramethylrhodamine, ethylester, perchlorate (TMRE) (Molecular Probes, Eugene, Oreg.) was used to measure ΔΨm. Cells were incubated with 25 nM TMRE for 30 minutes at 37° C. in the dark, washed in PBS, and analyzed by FACS on the FL-2 channel (FACScan: Becton Dickinson, Mountain View, Calif.)."}, "[8]": {"system": "HUVEC and HMVEC cells", "assay": "Endothelial cell differentiation (tube formation) assay", "details": "HUVEC and HMVEC; 24 h", "experimental": "Endothelial cell differentiation (tube formation) assays were done using an in vitro angiogenesis assay kit (Chemicon, Temecula, Calif.). Briefly, HUVEC and HMVEC cells were grown to 80% confluency, collected, resuspended in growth medium and plated at a concentration of 2×10^4 cells/well in a 96-well plate coated with matrigel (Chemicon, Temecula, Calif.). To the wells, varying concentrations of MDA-7 protein were added and incubated for 24 h at 37° C. Wells that were not treated with MDA-7 protein served as a negative control. The ability of sMDA-7 to inhibit tube formation was determined and quantitated by counting the number of tubes under bright field microscopy. All samples were tested in duplicate. For comparative studies using MDA-7 and endostatin (Calbiochem), cells were plated as described above and exposed to varying concentration of the proteins. […] All other experimental procedures were the same as described above."}}, "data": [{"molecule": "Nc1ncc2[nH]cnc2n1.O=[N+]([O-])O", "note": "[2-AP, 2-Aminopurine Nitrate Salt]", "values": [{"measurement": "apoptosis induction and cell killing in cells treated with Ad-mda7", "setting": "[1]", "value": "blocked apoptosis induction and cell killing in a dose dependent manner"}, {"measurement": "cell viability", "setting": "[2]", "value": "no effect on cell viability"}, {"measurement": "PKR and eIF-2α phosphorylation in Ad-mda7 treated cells", "setting": "[3]", "value": "attenuated PKR activation with inhibition of both PKR and eIF-2α phosphorylation"}, {"measurement": "protein synthesis in Ad-mda7 treated cells", "setting": "[4]", "value": "reversal of eIF-2α protein synthesis inhibition"}]}, {"molecule": "CC1=C(CC(=O)O)c2cc(F)ccc2/C1=C\\c1ccc([S+](C)[O-])cc1", "note": "(stereo not drawn) [Sulindac]", "values": [{"measurement": "TNF-mediated NF-κB activation", "setting": "[5]", "value": "inhibited TNF-mediated NF-κB activation in a dose-dependent manner"}, {"measurement": "activation of the NF-κB pathway", "setting": "[5]", "value": "inhibited the activation of the NF-κB pathway"}]}, {"molecule": "C[C@H]1CCC/C=C/[C@@H]2C[C@H](O)C[C@H]2[C@H](O)/C=C/C(=O)O1", "note": "[brefeldin A]", "values": [{"measurement": "concentration that completely blocks secretion of MDA-7 protein", "setting": "[6]", "value": "less than 1 μg/ml"}]}, {"molecule": "CN[C@@H]1C[C@H]2O[C@@](C)([C@@H]1OC)n1c3ccccc3c3c4c(c5c6ccccc6n2c5c31)C(=O)NC4", "note": "[staurosporine]", "values": [{"measurement": "MMP changes and apoptosis", "setting": "[7]; A549 cells", "value": "induces MMP changes and apoptosis"}, {"measurement": "MMP changes and apoptosis", "setting": "[7]; H1299 cells", "value": "able to induce MMP changes and the induction of apoptosis"}]}, {"molecule": "endostatin [reference compound]", "values": [{"measurement": "inhibition of endothelial tube formation", "setting": "[8]", "value": "the inhibitory effect by endostatin was not observed"}]}, {"molecule": "tunicamycin", "values": [{"measurement": "cell death, inhibitor alone", "setting": "[6]; 2 μg/ml tunicamycin, trypan blue", "value": "did not induce death"}, {"measurement": "concentration that completely blocks secretion of MDA-7 protein", "setting": "[6]", "value": 2, "unit": "µg/mL"}]}]}
